Where “and” joins values, the source holds several entries; their conditions need not be identical. Identical values can stand only once.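 Cultured in 96-well plates, cells were exposed to test compound for 48 hours across five concentrations. GI50 marks 50% less growth. At the TGI there is no net growth.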 Bounds are passed on as bounds.

Some test systems named below: HCC-2998 colon; DMS 114 small cell lung; SN12C renal; RXF 393 renal; M14 melanoma; U251 CNS; MDA-MB-435; UO-31 renal; UACC-62 melanoma; HOP-18 NSCLC; DMS 273 small cell lung; MALME-3M melanoma.
Assay in all cases: DTP human tumour cell line panel, 48 h

Turning to `COC1/C=C\C=C(/C)C(=O)NC2=CC(=O)C(NCCCl)=C(CC(C)CC(OC)C(O)C(C)/C=C(/C)C1OC(N)=O)C2=O` (centres undefined), the concentration for total growth inhibition (TGI) with HCC-2998 colon worked out at 1000 nM; in the assay on DMS 114 small cell lung, 1600 nM; with SN12C renal, 2800 nM; in the assay on RXF 393 renal, 1200 nM; with M14 melanoma it was 2480 nM; in the assay with U251 CNS, 4140 nM. Further, the total growth inhibition concentration (TGI) in the assay on MDA-MB-435 was 3720 nM; in the assay with UO-31 renal, 10600 nM; in the assay on UACC-62 melanoma, 1330 nM; with HOP-18 NSCLC, 1720 nM; in the assay with DMS 273 small cell lung it was 1100 nM; in the assay with MALME-3M melanoma, 1480 nM.
Take `C=C1CC2CC[C@@]34C[C@@H]5O[C@@H]6C(O[C@H]7CC[C@H](CC(=O)OC8[C@@H](C)C9OC%10C[C@]%11(C[C@@H]%12O[C@@]%13(C[C@@H](C)[C@@H]%12O%11)C[C@H](C)[C@@H]%11OC%12CC(C(O)CO)OC%12C[C@@H]%11O%13)OC%10CC9O[C@H]8C[C@H]8O[C@@H](CC[C@@H]1O2)C[C@@H](C)C8=C)O[C@@H]7[C@@H]6O3)C5O4` (some centres undefined): the TGI in the assay with HCC-2998 colon was 8.65 nM; in the assay on DMS 114 small cell lung, 4.28 nM and 19.8 nM; in the assay on SN12C renal it was above 1480 nM; in the assay on RXF 393 renal, 4.51 nM; in the assay with M14 melanoma, 6.75 nM; in the assay with U251 CNS, 0.191 nM. The total growth inhibition concentration (TGI) in the assay on UO-31 renal is above 1480 nM; with UACC-62 melanoma it was above 1480 nM; in the assay on HOP-18 NSCLC, above 1480 nM; in the assay on DMS 273 small cell lung it was below 0.148 nM; in the assay on MALME-3M melanoma, 9.77 nM. Moreover, the concentration for 50% growth inhibition (GI50) was below 0.148 nM with SN12C renal; below 0.148 nM in the assay with U251 CNS; 505 nM with UO-31 renal; below 0.148 nM in the assay with UACC-62 melanoma; below 0.148 nM in the assay with DMS 273 small cell lung.
As to `COC(=O)/C(=C/c1ccc(OC)cc1)C(C(=O)O)=C(C)C`, the concentration for total growth inhibition (TGI) with HCC-2998 colon, in the assay with DMS 114 small cell lung, in the assay on SN12C renal, with RXF 393 renal, in the assay on M14 melanoma and with U251 CNS was above 100000 nM throughout. Besides, the TGI with UO-31 renal, with UACC-62 melanoma, with HOP-18 NSCLC, in the assay with DMS 273 small cell lung and with MALME-3M melanoma was above 100000 nM in each case.

A word on the TGI: it is the concentration at which net growth stops. Low values mean greater sensitivity of the cells, high ones lower sensitivity of the cells. Broadly, the GI50 is the concentration that inhibits growth by half.

These data come from PubChem BioAssay (NCI).
